In PMC9144915, “Indole Alkaloids and Chromones from the Stem Bark of Cassia alata and Their Antiviral Activities” (Molecules, 2022):
≈ marks a conversion by molar mass, not a printed value. Where two headings read alike, the source gives them in different places.

Experiments:
[1] = system: tobacco mosaic virus (TMV); assay: Anti-TMV activity, half-leaf method; assay type: in vivo; conditions: in Nicotiana glutinosa; for inhibition at 20 µM: read-out: % Inhibition at 20 µM
Experimental: The anti-TMV activities were tested using the half-leaf method according to our previous studies, and Ningnanmycin (C16H23O8N7, CAS No. 156410-09-2), a commercial cytosine nucleoside peptide type antibiotics for plant disease in China, was used as a positive control. The virus was inhibited by mixing with the solution of tested compounds (20 μM in DMSO). After 30 min, the mixture was inoculated on the left side of the leaves of N. glutinosa, whereas the right side of the leaves was inoculated with the mixture of DMSO solution with the virus as control. The local lesion numbers were recorded 3–4 days after inoculation. Three repetitions were conducted for each compound. The inhibition rates were calculated according to the formula: inhibition rate (%) = [(C − T)/C] × 100%(1) where C is the average number of local lesions of the control and T is the average number of local lesions of the treatment. Ningnanmycin (20 μM in DMSO), a commercial virucide for plant disease in China, was used as a positive control.

[2] = Cytotoxicity in MA-104 cells (MTT); assay type: cell-based; conditions: African green monkey
Experimental: (§1) The anti rotavirus activities were tested according to our previous literature. Human rotavirus Wa group was used to infect the cell culture MA104 in vitro, the 50% cytotoxicity concentration (CC50) and half maximal effective concentration (EC50) were evaluated, and ribavirin (C8H12N4O5, CAS No. […], a broad-spectrum antiviral drug) was used as a positive control. MA-104 cells (1 × 10^5 cells per well) were grown in 96-well plates for 48 h. The media were removed and replaced by new media containing serial dilutions of compounds under test. After incubation for 72 h, the media were discarded, and 5.0 μL of MTT solution was added to each well. Plates were then incubated at 37 °C for 4 h. The solution was removed, and 100 μL of 0.04 mol/L HCl-isopropanol was added to each well to dissolve formazan crystals. Using a microplate reader, the absorbance of each well was measured at 540 nm. After subtracting the background absorbance at 655 nm, the 50% CC50 of each compound was estimated by regression analysis.

Human rotavirus Wa group = assay: Anti-rotavirus assay, prevention of cytopathic effect in MA104 cells (mixed treatment); assay type: cell-based; conditions: for EC50: Human rotavirus, MA104, rotavirus 0.01 MOI, MA-104 cells, 72 h, CPE; for TI (CC50/EC50): therapeutic index
Experimental: In order to study whether the chromones and indole alkaloids from the stem bark of C. alata had more broad antiviral activities, compounds 1–5 were also tested for their anti-rotavirus activity. Their ability to prevent the cytopathic effects of rotavirus in MA104 cells was tested according to our previous literatures, and their effects were measured in parallel with the determination of antiviral activity using ribavirin as a positive control.
as §1
In the mixed treatment assay, each compound was mixed with a 0.01 multiplicity of infection (MOI) of the rotaviruses at various concentrations (1–160 μg/mL) and incubated at 4 °C for 1 h. The mixtures were inoculated in triplicates onto near confluent MA-104 cell monolayers (1 × 10^5 cells per well) for 1 h with occasional rocking. The solution was removed, and the cells were replaced with eagles minimum essential medium (EMEM) containing 1 μg/mL trypsin. […] EC50 was estimated by regression analysis.

TMV = assay: Protective effect on TMV (pretreatment of tobacco plant before inoculation); assay type: in vivo; conditions: Tobacco mosaic virus; tobacco plant pretreated with 20 μM solution for 6 h before inoculation with TMV; read-out: protective effect inhibition rate
Experimental: For compounds with significant activities in half-leaf method assays, their protective effects on TMV were also evaluated by pretreating a tobacco plant with 20 μM solutions of compounds in DMSO, or a solution of DMSO for 6 h before inoculation with TMV.

Structure (SMILES)	IC50 [1]	inhibition at 20 µM [1]	CC50 at 72 h [2]	EC50 (Human rotavirus Wa group)	TI (CC50/EC50) (Human rotavirus Wa group)	inhibition at 20 µM (TMV)	CC50 at 72 h ([2]; MA-104 cells, 72 h, MTT, read-out: CC50)
COc1cc(C)cc2c1CN(C)C2=O [Compound 1, 4-Methoxy-2,6-dimethylisoindolin-1-one]	55.3 µM	26.5 ± 2.8%	142 µg/mL (≈ 745 µM)	14.6 µg/mL (≈ 76.3 µM)	9.75		
COc1cc(C)cc2c1CN(Cc1ccc3c(c1CC(C)=O)OC(C)(C)CC3=O)C2=O [Compound 5, 2-((3,4-Dihydro-2,2-dimethyl-4-oxo-8-(2-oxopropyl)-2H-chromen-7-yl)methyl)-4-methoxy-6-methyl-isoindolin-1-one]	43.4 µM	31.8 ± 3.3%	154 µg/mL (≈ 364 µM)	12.8 µg/mL (≈ 30.4 µM)	12.0		
COc1cc(CO)cc2c1CN(C)C2=O [Compound 2, 6-(Hydroxymethyl)-4-methoxy-2-methylisoindolin-1-one]	22.6 µM	44.4 ± 3.5%	175 µg/mL (≈ 845 µM)	14.8 µg/mL (≈ 71.4 µM)	11.8	40.8%	
CC(=O)Cc1c(CO)ccc2c1OC(C)(C)CC2=O [Compound 4, 7-(Hydroxymethyl)-2,2-dimethyl-8-(2-oxopropyl)chroman-4-one]	17.9 µM	52.3 ± 3.6%	192 µg/mL (≈ 734 µM)	15.5 µg/mL (≈ 59.1 µM)	12.4	49.3%	
NC(=O)c1ncn([C@@H]2O[C@H](CO)[C@@H](O)[C@H]2O)n1 [Ribavirin, reference compound]				12.2 µg/mL (≈ 50 µM)	19.2		234 µg/mL (≈ 960 µM)
COc1cc(CCCO)cc2c1CN(C)C2=O [Compound 3, 6-(3-Hydroxypropyl)-4-methoxy-2-methylisoindolin-1-one]	14.2 µM	66.5 ± 4%	208 µg/mL (≈ 885 µM)	13.6 µg/mL (≈ 57.8 µM)	15.3	68.2%	
CNCC(=O)N[C@@H](CO)C(=O)N[C@H]1[C@H](O)[C@@H](O)[C@H](n2ccc(N)nc2=O)O[C@@H]1C(N)=O [Ningnanmycin, reference compound]	37.2 µM	32.8 ± 3%					
